In the supplement of paper PMC10307832:

Tests used:
Assay in all cases: relative viability (nuclei count vs DMSO), 5 days (fraction); higher = more cells survive
AZ505 + Tozasertib = compound: C1CCC(CC1)N(CCNCCC2=C3C(=C(C=C2)O)NC(=O)CO3)C(=O)CCNCCC4=CC(=C(C=C4)Cl)Cl [AZ505] + Cc1cc(Nc2cc(N3CCN(C)CC3)nc(Sc3ccc(NC(=O)C4CC4)cc3)n2)n[nH]1 [Tozasertib] (partner 0.1 µM)
Method in brief: (§1)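 Lung cancer cell lines in 1536-well plates were dosed by pin tool the day after seeding, either with one drug alone or with a fixed anchor-drug dose plus five library-drug doses (not always all listed) in √10 steps. After 5 days, cells were fixed and their nuclei stained in one step (final 0.05% Triton X-100, 1% formaldehyde, 1 ug/ml Hoechst), then counted on 4× images. Relative viability is the nuclei count in treated wells divided by that in vehicle wells. Values are medians of duplicate plates.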

Dactolisib + OSI-027 = compound: Cn1c(=O)n(-c2ccc(C(C)(C)C#N)cc2)c2c3cc(-c4cnc5ccccc5c4)ccc3ncc21 [Dactolisib] + COc1cccc2cc(-c3nc([C@H]4CC[C@H](C(=O)O)CC4)n4ncnc(N)c34)[nH]c12 [OSI-027] (partner 0.5 µM)
Method in brief: as §1

Dactolisib + Dasatinib = compound: Cn1c(=O)n(-c2ccc(C(C)(C)C#N)cc2)c2c3cc(-c4cnc5ccccc5c4)ccc3ncc21 [Dactolisib] + Cc1nc(Nc2ncc(C(=O)Nc3c(C)cccc3Cl)s2)cc(N2CCN(CCO)CC2)n1 [Dasatinib] (partner 0.075 µM)
Method in brief: as §1

Dactolisib + Pemetrexed = compound: Cn1c(=O)n(-c2ccc(C(C)(C)C#N)cc2)c2c3cc(-c4cnc5ccccc5c4)ccc3ncc21 [Dactolisib] + Nc1nc2[nH]cc(CCc3ccc(C(=O)N[C@@H](CCC(=O)O)C(=O)O)cc3)c2c(=O)[nH]1 [Pemetrexed] (partner 0.2 µM)
Method in brief: as §1

UMC-11
relative viability (AZ505 + Tozasertib; first compound 0.08 µM): 0.189 | relative viability (AZ505 + Tozasertib; first compound 0.253 µM): 0.206 | relative viability (AZ505 + Tozasertib; first compound 0.8 µM): 0.188 | relative viability (AZ505 + Tozasertib; first compound 2.53 µM): 0.196 | relative viability (AZ505 + Tozasertib; first compound 8 µM): 0.205 | relative viability (Dactolisib + OSI-027; first compound 0.002 µM): 0.432 | relative viability (Dactolisib + OSI-027; first compound 0.006325 µM): 0.537 | relative viability (Dactolisib + OSI-027; first compound 0.02 µM): 0.394 | relative viability (Dactolisib + OSI-027; first compound 0.06325 µM): 0.283 | relative viability (Dactolisib + OSI-027; first compound 0.2 µM): 0.248 | relative viability (Dactolisib + Dasatinib; first compound 0.002 µM): 0.496 | relative viability (Dactolisib + Dasatinib; first compound 0.006325 µM): 0.419 | relative viability (Dactolisib + Dasatinib; first compound 0.02 µM): 0.37 | relative viability (Dactolisib + Dasatinib; first compound 0.06325 µM): 0.253 | relative viability (Dactolisib + Dasatinib; first compound 0.2 µM): 0.219 | relative viability (Dactolisib + Pemetrexed; first compound 0.002 µM): 0.855 | relative viability (Dactolisib + Pemetrexed; first compound 0.006325 µM): 0.742 | relative viability (Dactolisib + Pemetrexed; first compound 0.02 µM): 0.552 | relative viability (Dactolisib + Pemetrexed; first compound 0.06325 µM): 0.453 | relative viability (Dactolisib + Pemetrexed; first compound 0.2 µM): 0.26
